Test results published in patent US20230141863A1, “Small Molecule Inhibitors Targeting the Sodium Channel Tamoxifen Receptor and Uses Thereof” (Northwestern University, priority 2021, published 2023).

Target: T1, Nav1.7 D1458A in domain III (Homo sapiens, UniProt Q15858, D1458A)
T1 construct: expressed in transfected cells
Assay: Voltage clamp of Nav1.7 with alanine substitution in domain III
Assay type: cell-based
Method: While no clear drug-receptor interactions were determined within Siteout, the S6 E220 side chains formed hydrogen bond interactions with the ether and amine moieties of the ND-Tam molecules found at Sitein. […] After structural alignment of the crystalized NavMs-Tam complex with the cryo EM Nav1.7+b1+b2 channel coordinates, the S6 side chain hydroxyl in DII (S969) and the carboxyl side chains in DIII (E1458) and DIV (D1761) observed in the human channel were nearly superimposable with E220 of the prokaryotic Nav subunits. In addition, the distances from the drug ether and amines were within acceptable distances (2.8-3.1 Å) for hydrogen bond formation for all three site chains (FIG. 2B). […]
Plasmids encoding the human version of channels Nav1.1, 1.6, and 1.7 were co-transfected with TRES GFP into HEK cell lines for whole-cell voltage clamp studies (American Type Culture Collection). […] Plasma membrane currents were recorded using borosilicate glass electrodes polished to resistances of […]. Sodium currents conducted by heterologously expressed Navs were recorded using the following solutions (in mM). […] Endogenous DRG sodium currents were recorded using an intracellular solution consisting of 70 CsCl, 70 CsF, 2 EGTA, 5 HEPES, and 5 NaCl; the pH was adjusted to 7.4 with CsOH. […]

T1 sequence (Q15858 whole entry D1458A, the tested form may be a part): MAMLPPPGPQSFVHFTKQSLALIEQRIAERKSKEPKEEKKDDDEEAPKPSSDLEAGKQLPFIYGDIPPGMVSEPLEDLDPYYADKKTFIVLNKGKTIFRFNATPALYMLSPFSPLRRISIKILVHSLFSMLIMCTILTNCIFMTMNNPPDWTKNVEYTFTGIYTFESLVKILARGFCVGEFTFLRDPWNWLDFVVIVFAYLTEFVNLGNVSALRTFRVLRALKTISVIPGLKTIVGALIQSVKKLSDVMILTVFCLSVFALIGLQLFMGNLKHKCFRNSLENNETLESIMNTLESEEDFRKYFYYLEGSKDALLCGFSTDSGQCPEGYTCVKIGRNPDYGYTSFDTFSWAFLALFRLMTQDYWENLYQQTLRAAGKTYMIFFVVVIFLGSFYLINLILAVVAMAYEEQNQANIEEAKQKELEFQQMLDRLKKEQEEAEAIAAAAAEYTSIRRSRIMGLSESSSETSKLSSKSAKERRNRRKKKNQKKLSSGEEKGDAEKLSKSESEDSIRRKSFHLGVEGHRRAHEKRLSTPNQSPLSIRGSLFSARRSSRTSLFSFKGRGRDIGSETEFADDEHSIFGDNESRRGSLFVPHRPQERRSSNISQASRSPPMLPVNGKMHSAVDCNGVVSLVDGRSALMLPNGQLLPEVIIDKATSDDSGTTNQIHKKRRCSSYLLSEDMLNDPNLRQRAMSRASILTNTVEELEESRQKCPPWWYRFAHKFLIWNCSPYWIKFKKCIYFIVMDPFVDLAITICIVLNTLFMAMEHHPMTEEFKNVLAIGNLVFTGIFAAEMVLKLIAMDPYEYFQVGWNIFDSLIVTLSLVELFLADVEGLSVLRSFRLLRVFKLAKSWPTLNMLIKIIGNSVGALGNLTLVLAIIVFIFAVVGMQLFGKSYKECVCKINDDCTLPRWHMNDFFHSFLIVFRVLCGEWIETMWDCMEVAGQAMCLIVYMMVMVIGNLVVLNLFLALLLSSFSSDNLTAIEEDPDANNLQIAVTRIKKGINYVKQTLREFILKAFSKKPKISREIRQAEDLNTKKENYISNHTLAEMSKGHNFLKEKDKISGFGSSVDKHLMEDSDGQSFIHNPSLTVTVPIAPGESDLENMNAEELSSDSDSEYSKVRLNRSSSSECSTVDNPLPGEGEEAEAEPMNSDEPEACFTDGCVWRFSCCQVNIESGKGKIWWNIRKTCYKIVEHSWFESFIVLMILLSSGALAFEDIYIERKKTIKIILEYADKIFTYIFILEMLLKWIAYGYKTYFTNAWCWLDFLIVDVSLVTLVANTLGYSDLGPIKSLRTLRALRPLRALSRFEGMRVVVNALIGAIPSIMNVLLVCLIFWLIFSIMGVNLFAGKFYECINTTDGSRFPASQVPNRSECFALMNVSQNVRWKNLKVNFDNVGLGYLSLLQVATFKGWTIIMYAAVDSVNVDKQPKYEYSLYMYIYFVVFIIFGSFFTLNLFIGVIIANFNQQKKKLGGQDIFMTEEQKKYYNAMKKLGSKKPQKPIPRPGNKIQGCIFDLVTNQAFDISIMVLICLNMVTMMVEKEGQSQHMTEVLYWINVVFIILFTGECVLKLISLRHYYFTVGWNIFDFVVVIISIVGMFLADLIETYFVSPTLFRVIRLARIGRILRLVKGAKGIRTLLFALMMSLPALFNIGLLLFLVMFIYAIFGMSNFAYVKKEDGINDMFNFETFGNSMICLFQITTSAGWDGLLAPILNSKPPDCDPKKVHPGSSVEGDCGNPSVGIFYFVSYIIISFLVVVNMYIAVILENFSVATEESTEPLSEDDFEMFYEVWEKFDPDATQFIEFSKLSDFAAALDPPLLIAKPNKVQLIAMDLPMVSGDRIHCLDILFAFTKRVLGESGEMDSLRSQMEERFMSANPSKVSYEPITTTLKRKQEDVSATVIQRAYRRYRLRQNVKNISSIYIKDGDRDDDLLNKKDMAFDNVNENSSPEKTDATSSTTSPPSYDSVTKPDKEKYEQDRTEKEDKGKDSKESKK

`CC/C(=C(\c1ccccc1)c1ccc(OCCNC)cc1)c1ccccc1` [ND-Tam, 2-[4-[(Z)-1,2-diphenylbut-1-enyl]phenoxy]-N-methylethanamine] showed a slope of concentration-dependence of 2.2.
